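Assay format: 96-well plates, 48-hour exposure. Abbreviation: GI50, concentration required for 50% inhibition of growth.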 Active and inactive are the calls of the source. No stated cut-off is given here; in the data, active = GI50 up to about 1.1 µM and inactive = higher.
Experiments:
Assay in all cases: NCI anticancer screen, dose series, 48 h
[1] = system: M19-MEL
[2] = system: DMS-273
[3] = system: DLD-1
[4] = system: OVCAR-3
[5] = system: LXFL 529
[6] = system: NCI-H23
[7] = system: NCI-H522
[8] = system: SF-539
[9] = system: RXF 393
[10] = system: KM12
[11] = system: NCI-H226
[12] = system: SF-268
[13] = system: LOX IMVI
[14] = system: HOP-92
[15] = system: OVCAR-8
[16] = system: SR
[17] = system: HOP-18
[18] = system: UO-31
[19] = system: KM-20L2
[20] = system: SK-MEL-28
[21] = system: OVCAR-5
[22] = system: EKVX
[23] = system: RPMI-8226
[24] = system: RXF 631
[25] = system: HOP-62
[26] = system: OVCAR-4
[27] = system: MOLT-4
[28] = system: HCT-116
[29] = system: Malme-3M
[30] = system: NCI-H460
[31] = system: SNB-75
[32] = system: U-251
[33] = system: HCT-15
[34] = system: CCRF-CEM
[35] = system: ACHN
[36] = system: HL-60
[37] = system: SNB-78
[38] = system: CAKI-1
[39] = system: SK-MEL-5
[40] = system: UACC-62
[41] = system: DMS-114
[42] = system: A498
[43] = system: SK-OV-3
[44] = system: SF-295
[45] = system: UACC-257
[46] = system: HT-29
[47] = system: COLO 205
[48] = system: SK-MEL-2
[49] = system: A549
[50] = system: M14
[51] = system: TK-10
[52] = system: SW-620
[53] = system: 786-0
[54] = system: SNB-19
[55] = system: SN12C
[56] = system: IGROV-1
[57] = system: XF498
[58] = system: K562
[59] = system: HCC 2998

N#Cc1c([N+](=O)[O-])cc(C(F)(F)F)cc1[N+](=O)[O-]
GI50 [1]: 2.54 µM (inactive) | GI50 [2]: 4.49 µM (inactive) | GI50 [3]: 3.87 µM (inactive) | GI50 [4]: 16.7 µM (inactive) | GI50 [5]: 2.07 µM (inactive) | GI50 [6]: 7.94 µM (inactive) | GI50 [7]: 0.59 µM (active) | GI50 [8]: 5.94 µM (inactive) | GI50 [9]: 2.44 µM (inactive) | GI50 [10]: 5.25 µM (inactive) | GI50 [11]: 21.6 µM (inactive) | GI50 [12]: 13.1 µM (inactive) | GI50 [13]: 2.64 µM (inactive) | GI50 [14]: 1.81 µM (inactive) | GI50 [15]: 2.09 µM (inactive) | GI50 [16]: 2.16 µM (inactive) | GI50 [17]: 11.2 µM (inactive) | GI50 [18]: 19.2 µM (inactive) | GI50 [19]: 17.1 µM (inactive) | GI50 [20]: 8.73 µM (inactive) | GI50 [21]: 18.1 µM (inactive) | GI50 [22]: 18 µM (inactive) | GI50 [23]: 2.57 µM (inactive) | GI50 [24]: 9.79 µM (inactive) | GI50 [25]: 18.4 µM (inactive) | GI50 [26]: 2.11 µM (inactive) | GI50 [27]: 2.08 µM (inactive) | GI50 [28]: 7.76 µM (inactive) | GI50 [29]: 8.2 µM (inactive) | GI50 [30]: 19.7 µM (inactive) | GI50 [31]: 6.22 µM (inactive) | GI50 [32]: 18.8 µM (inactive) | GI50 [33]: 8.89 µM | GI50 [34]: 1.09 µM (active) | GI50 [35]: 7.5 µM (inactive) | GI50 [36]: 1.66 µM (inactive) | GI50 [37]: 2.07 µM (inactive) | GI50 [38]: 4.57 µM (inactive) | GI50 [39]: 15.3 µM (inactive) | GI50 [40]: 5.04 µM (inactive) | GI50 [41]: 1.88 µM (inactive) | GI50 [42]: 18.2 µM (inactive) | GI50 [43]: 19.1 µM (inactive) | GI50 [44]: 4.74 µM (inactive) | GI50 [45]: 6.7 µM (inactive) | GI50 [46]: 2.96 µM (inactive) | GI50 [47]: 4.88 µM (inactive) | GI50 [48]: 18.5 µM (inactive) | GI50 [49]: 19.5 µM (inactive) | GI50 [50]: 4.85 µM (inactive) | GI50 [51]: 13.7 µM (inactive) | GI50 [52]: 3.26 µM (inactive) | GI50 [53]: 6.14 µM (inactive) | GI50 [54]: 18.3 µM (inactive) | GI50 [55]: 14.1 µM (inactive) | GI50 [56]: 5.65 µM (inactive) | GI50 [57]: 1.83 µM (inactive) | GI50 [58]: 2.05 µM (inactive)

Cc1cc(Cl)ccc1NC(=O)CC1SC(Nc2ccccc2Cl)=NC1=O (stereo unspecified)
GI50 [1]: 38.9 µM (inactive) | GI50 [2]: 26.4 µM (inactive) | GI50 [3]: 28.1 µM (inactive) | GI50 [4]: 28.3 µM (inactive) | GI50 [5]: 34.9 µM (inactive) | GI50 [6]: 38.6 µM (inactive) | GI50 [7]: 29.8 µM (inactive) | GI50 [8]: 20.3 µM (inactive) | GI50 [9]: 26.1 µM (inactive) | GI50 [10]: 33.3 µM (inactive) | GI50 [11]: 24.2 µM (inactive) | GI50 [12]: 39 µM (inactive) | GI50 [14]: 48.9 µM (inactive) | GI50 [15]: 29.6 µM (inactive) | GI50 [16]: 20.6 µM (inactive) | GI50 [17]: > 100 µM (inactive) | GI50 [18]: 35.5 µM (inactive) | GI50 [59]: 52.2 µM (inactive) | GI50 [19]: 26.8 µM (inactive) | GI50 [20]: 66.2 µM (inactive) | GI50 [21]: > 100 µM (inactive) | GI50 [22]: 73.3 µM (inactive) | GI50 [23]: 23.2 µM (inactive) | GI50 [24]: 45.6 µM (inactive) | GI50 [25]: > 100 µM (inactive) | GI50 [26]: 41.3 µM (inactive) | GI50 [27]: 30.2 µM (inactive) | GI50 [28]: 30.3 µM (inactive) | GI50 [29]: 91.8 µM (inactive) | GI50 [30]: 51.3 µM (inactive) | GI50 [31]: 38.7 µM (inactive) | GI50 [32]: 26.4 µM (inactive) | GI50 [33]: 39.9 µM | GI50 [34]: 29.6 µM (inactive) | GI50 [35]: 43.3 µM (inactive) | GI50 [36]: 15.9 µM (inactive) | GI50 [37]: 49.5 µM (inactive) | GI50 [38]: 41.7 µM (inactive) | GI50 [39]: 36.6 µM (inactive) | GI50 [40]: 30.3 µM (inactive) | GI50 [41]: 21.1 µM (inactive) | GI50 [42]: 65.6 µM (inactive) | GI50 [43]: 49.3 µM (inactive) | GI50 [44]: 52.6 µM (inactive) | GI50 [45]: 50.2 µM (inactive) | GI50 [46]: 37.1 µM (inactive) | GI50 [47]: 19.2 µM (inactive) | GI50 [48]: 48.4 µM (inactive) | GI50 [49]: 36.3 µM (inactive) | GI50 [50]: 49.2 µM (inactive) | GI50 [51]: 88.5 µM (inactive) | GI50 [52]: 37.2 µM (inactive) | GI50 [53]: 53.8 µM (inactive) | GI50 [54]: 32.4 µM (inactive) | GI50 [55]: 33.8 µM (inactive) | GI50 [56]: 49.5 µM (inactive) | GI50 [57]: 62.1 µM (inactive) | GI50 [58]: 37.8 µM (inactive)

From ChEMBL document CHEMBL1201862, “PubChem BioAssay data set” (2004)
